In US10420786B2, “Compositions for use in cardioplegia comprising esmolol and adenosine” (AOP ORPHAN IP AG, priority 2009, dated 2019):
Read-outs that look alike come from different tables or passages of the source.

Assays:
[1] = pH 7.0; cited from earlier work
[2] = cited from earlier work
[3] = system: heart; experiment: Arrest by esmolol on its own (applicant's finding); conditions: esmolol 0.75 mmol/L on its own
[4] = system: Langendorff perfused rat heart; experiment: Reversibility of esmolol: treatment for 10 minutes then washout without ischaemia
Description: All the following experiments performed in a Langendorff perfused rat heart.
The first study is to determine the reversibility of esmolol at different concentrations after treatment with esmolol for 10 minutes then washout without ischaemia and LVDP was measured 9 minutes after starting the treatment and 3 minutes and 15 minutes after washing out the drug. The following doses were studied 0.03, 0.1, 0.3, 1, 3 mM. (n=5 each group)
It is therefore decided that esmolol concentration between 0.3 and 1 mM offers reasonable arresting effect with good reversibility profile.

[5] = system: Langendorff perfused rat hearts; conditions: cited from earlier work

Structure (SMILES) | partition coefficient (octanol/water) [1] | solubility in alcohol [2] | solubility in water [2] | induction of effective arrest [3] | reversibility (LVDP recovery) profile after washout ([4]; 0.3 mM compared with 1 mM esmolol) | esmolol concentration required to induce arrest ([4]; esmolol alone, doses 0.03, 0.1, 0.3, 1, 3 mM) [mM] | reversibility of arrest ([5]; esmolol 0.75 mmol/L) | reversibility of arrest ([5]; esmolol 1.5 mmol/L) | esmolol concentration that can cause cardiac arrest ([5]; in-vitro studies)
CC(C)NCC(O)COc1cccc2ccccc12 (stereo not drawn) [propranolol] | 17.0 | – | – | – | – | – | – | – | –
Nc1ncnc2c1ncn2[C@@H]1O[C@H](CO)[C@@H](O)[C@H]1O [Adenosine, (2R,3R,4S,5R)-2-(6-amino-9H-purin-9-yl)-5-(hydroxymethyl)oxolane-3,4-diol] | – | practically insoluble | soluble | – | – | – | – | – | –
COC(=O)CCc1ccc(OCC(O)CNC(C)C)cc1.Cl (racemic) [Esmolol, (±)-Methyl p-[2-hydroxy-3-(isopropylamino)propoxy] hydrocinnamate hydrochloride] | 0.42 | freely soluble | very soluble | not sufficient to induce effective arrest | better reversibility (LVDP recovery) profile | 1 | easily reversible | slowly reversible with poor recovery | higher than 1 mmol/L
